Measurements: US20220088044A1, “SUBSTANCES FOR TREATMENT OF CORONAVIRUS INFECTION” (ScandiBio Therapeutics AB, priority 2020, published 2022)
Read-outs that look alike come from different tables or passages of the source.

Columns and labels:
[1] = test system: patients with chronic hepatitis C; details: 2 grams 2 times a day, compared to placebo; cited from earlier work
[2] = cited from earlier work
premature new-borns = details: 20 mg/kg/day; cited from earlier work
[3] = test system: acute respiratory distress syndrome (ARDS); details: human, in vivo; cited from earlier work
[4] = test system: patients with community-acquired pneumonia; details: compared to conventional therapy; cited from earlier work
[5] = test system: epithelial cells exposed to the H5N1 influenza A virus; details: cited from earlier work
HIV patients = details: cited from earlier work
COPD exacerbations = details: in vivo; cited from earlier work
[6] = cited from earlier work; remark: listed apart in the source
[7] = cited from earlier work; remark: listed apart in the source
[8] = cited from earlier work; remark: listed apart in the source
[9] = test system: lamb model with increased pulmonary blood flow; details: chronic treatment; cited from earlier work
[10] = cited from earlier work; remark: listed apart in the source
[11] = test system: acute myocardial infarction; details: five controlled trials, n=3108; cited from earlier work
[12] = cited from earlier work; remark: listed apart in the source
blood NAD+ [13] = details: cited from earlier work
blood NAD+ [14] = details: cited from earlier work; remark: listed apart in the source
[15] = test system: obese subjects with hepatic steatosis; assay: Short-term dietary supplementation with serine in obese subjects with hepatic steatosis; assay type: in vivo, human
Protocol: To test the model-based predictions, we assessed the effect of short-term dietary supplementation with serine on fatty liver and fasting levels of plasma markers of liver functions in six obese subjects (BMI 32.5±2.70 kg/m2) with hepatic steatosis. Each patient received one oral dose of ˜20 g of L-serine (200 mg/kg) per day for 14 days. The supplementation was well-tolerated by all subjects. […] We examined the concept by testing if supplementation of GSH and NAD+ precursors for two weeks would decrease high fat diet induced liver fat accumulation in mice. Therefore, we gave serine 300 mg/kg/day and nicotinamide riboside (NR) 400 mg/kg/day la gavage as well as 1 g/l of NAC (N-acetyl-L-cysteine) in the drinking water for 14 days to high fat diet-fed mice.

aging mice = details: mouse, in vivo; cited from earlier work
[16] = test system: adults with hereditary sensory and autonomic neuropathy type 1 (HSAN1); details: 400 mg/kg/day, long-term (one to two years); cited from earlier work
[17] = test system: Pasteurella multocida infection; details: mouse, in vivo; cited from earlier work
traumatic brain injury = details: mouse, in vivo; cited from earlier work
[18] = cited from earlier work; remark: listed apart in the source
[19] = test system: LPS-induced acute lung injury; details: in vivo; cited from earlier work
[20] = after ingestion of supplemental nicotinamide; cited from earlier work
mice = details: cited from earlier work

SMILES: CC(=O)O[C@H](CC(=O)[O-])C[N+](C)(C)C [Acetyl-L-Carnitine]
- daily activity and fatigue [1]: increase daily activity in patients, reduce fatigue

SMILES: C[N+](C)(C)CC(O)CC(=O)[O-] (stereo not shown) [carnitine]
- side effects ([2]; doses of approximately 3 g/day): nausea, vomiting, abdominal cramps, diarrhoea, and a “fishy” body odor
- total carnitine concentrations in plasma and red blood cells (premature new-borns): increases total carnitine concentrations in plasma and red blood cells

SMILES: CC(=O)N[C@@H](CS)C(=O)O [NAC, N-acetylcysteine]
- duration of stay in intensive care [3]: has been shortened
- short-term mortality or 30-day mortality [3]: did not contribute to reducing short-term mortality or 30-day mortality
- inflammatory response and oxidative stress [4]: improves inflammatory response and oxidative stress
- inflammatory response [5]: reduce
- glutathione levels in red blood cells (HIV patients; 900 mg or 1800 mg twice daily): increased significantly
- red blood cell oxidized glutathione levels (HIV patients; 900 mg or 1800 mg twice daily): decreased significantly
- glutathione: glutathione disulfide (GSH:GSSG) ratios (HIV patients; both doses compared to placebo): generally non-significant increased
- number and effect of COPD exacerbations (COPD exacerbations): reduce the number and effect of COPD exacerbations
- half-life ([6]; adults): 5.6 to 6 h
- time to peak plasma concentration ([6]; after application): 30 to 60 min
- absorption ([6]; after oral administration): rapidly absorbed
- share of amount passed to the blood determined in the lungs ([6]; after oral administration): 48%
- distribution volume (Vd) ([6]; in vivo): 0.33 to 0.47 L/kg
- excreted in urine in the form of sulfate and taurine ([6]; in vivo): 22-30%
- rate of binding to plasma proteins ([6]; in vivo): about 50%
- effect of food intake ([6]; oral): not affected
- safety profile ([7]; HIV-infected patients, oral 6,000-8,000 mg daily for several months): good safety profile
- safety in humans ([7]; daily dosage of 4-6 grams): shown to be safe
- serious adverse events or signs of intoxication ([7]; even at very high doses): serious adverse events or signs of intoxication are not observed
- incidence of most common adverse reactions (rash, urticaria/facial flushing, pruritus, nausea and vomiting) ([7]; in vivo): greater than 2%
- anaphylactic reactions, share of people ([7]; within 30 min after IV loading dose): 3-6%

SMILES: C[N+](C)(C)C[C@H](O)CC(=O)[O-] [L-carnitine]
- tolerability ([2]; in vivo): usually well tolerated
- toxicity from over dosage ([2]; in vivo): no reports of toxicity
- solubility in acetone [8]: insoluble
- solubility in water, hot alcohol [8]: readily soluble
- lung carnitine homeostasis, oxidative stress, mitochondrial and endothelial function [9]: alleviates changes in lung carnitine homeostasis, reduces associated oxidative stress, and improves pulmonary mitochondrial function, NO signalling and eventually endothelial function
- absolute bioavailability ([10]; in vivo): 15-16%
- faecal excretion of total carnitine ([10]; in vivo): less than 1 % of the administered dose
- mean apparent terminal elimination half-life ([10]; in vivo): 17.4 h
- mean distribution half-life ([10]; in vivo): ~0.6 h
- removal from plasma by dialysis ([10]; in vivo): easily removed from plasma by dialysis
- total body clearance (Dose/AUC including endogenous baseline concentrations), mean ([10]; in vivo): 4.00 L/h
- binding to plasma protein or albumin ([10]; tested at any concentration): not bound
- heart failure, unstable angina, or myocardial reinfarction: daily 2 g versus 6 g [11]: no significant differences

SMILES: NC(=O)c1ccc[n+]([C@@H]2O[C@H](CO)[C@@H](O)[C@H]2O)c1 [NR, Nicotinamide riboside]
- lowest observed adverse effect level ([12]; 90-day study): 1000 mg/kg/day
- no observed adverse effect level ([12]; 90-day study): 300 mg/kg/day
- mortality ([12]; oral dose of 5000 mg/kg): no mortality
- tolerability (blood NAD+ [13]; oral, 250 mg up-titrated to 1000 mg twice daily, 9 days): well tolerated with no adverse events
- increase of blood NAD+, baseline to steady state (blood NAD+ [13]; p=0.001): 100%
- whole-blood NR, baseline to mean concentration at steady state (blood NAD+ [13]; p=0.03): Significant increases
- blood NAD+ metabolome (blood NAD+ [14]; single doses of 100, 300 and 1,000 mg): dose-dependent increases
- rise of human blood NAD+ (blood NAD+ [14]; single oral dose, pilot study): ≤ 2.7 fold

SMILES: N[C@@H](CO)C(=O)O [L-serine]
- ALT, AST, and ALP levels ([15]; after 14 days supplementation): significantly decreased
- liver fat ([15]; after ~20 g L-serine (200 mg/kg) oral per day for 14 days, decreased significantly from 26.8±6.0%): 20.4±7.0%
- tolerability ([15]; ~20 g L-serine per day for 14 days): well-tolerated
- body weight, oxidative stress and inflammation (aging mice): reduce body weight by decreasing orexigenic peptide expression and reduces oxidative stress and inflammation
- adverse effects (vital signs, physical examination, clinical laboratory) [16]: did not reveal adverse effects
- macrophage- and neutrophil-mediated inflammatory responses [17]: decrease the macrophage- and neutrophil-mediated inflammatory responses
- neuroprotection (traumatic brain injury): lead to neuroprotection
- safety in humans ([18]; doses up to 400 mg/kg/day (around 25-30 g/day)): shown to be safe
- safety in pregnancy ([18]; three daily doses of 5 g (190 mg/kg), pre- and postnatal treatment of 3-phosphoglycerate-dehydrogenase deficiency): safe even in pregnancy

SMILES: O=C(O)c1cccnc1 [niacin]
- LPS-induced acute lung injury [19]: alleviate LPS-induced acute lung injury

SMILES: NC(=O)c1cccnc1 [nicotinamide]
- flushing or glucose intolerance [20]: no cases of flushing or glucose intolerance have been reported

SMILES: CC(=O)N[C@@H](CSN=O)C(=O)O [SNOAC, S-nitroso-N-acetylcysteine]
- expression of several important genes (mice; in vitro and in vivo): induced a hypoxia-like response
- blood pressure in lungs and right ventricle (pulmonary artery hypertension) (mice; metabolite formed in mice treated with acetylcysteine): increased blood pressure in the lungs and right ventricle of the heart
